{"source": "patent US12358960B2", "about": "“Selective targeting of ubiquitin- and ubiquitin-like E1-activating enzymes by structurally-stabilized peptides” (Dana-Farber Cancer Institute, Inc., priority 2019, dated 2025)", "key": {"UBA1 [1]": {"target": "T1, UBA1 (Homo sapiens, UniProt P22314)", "T1 sequence (P22314 1-1058)": "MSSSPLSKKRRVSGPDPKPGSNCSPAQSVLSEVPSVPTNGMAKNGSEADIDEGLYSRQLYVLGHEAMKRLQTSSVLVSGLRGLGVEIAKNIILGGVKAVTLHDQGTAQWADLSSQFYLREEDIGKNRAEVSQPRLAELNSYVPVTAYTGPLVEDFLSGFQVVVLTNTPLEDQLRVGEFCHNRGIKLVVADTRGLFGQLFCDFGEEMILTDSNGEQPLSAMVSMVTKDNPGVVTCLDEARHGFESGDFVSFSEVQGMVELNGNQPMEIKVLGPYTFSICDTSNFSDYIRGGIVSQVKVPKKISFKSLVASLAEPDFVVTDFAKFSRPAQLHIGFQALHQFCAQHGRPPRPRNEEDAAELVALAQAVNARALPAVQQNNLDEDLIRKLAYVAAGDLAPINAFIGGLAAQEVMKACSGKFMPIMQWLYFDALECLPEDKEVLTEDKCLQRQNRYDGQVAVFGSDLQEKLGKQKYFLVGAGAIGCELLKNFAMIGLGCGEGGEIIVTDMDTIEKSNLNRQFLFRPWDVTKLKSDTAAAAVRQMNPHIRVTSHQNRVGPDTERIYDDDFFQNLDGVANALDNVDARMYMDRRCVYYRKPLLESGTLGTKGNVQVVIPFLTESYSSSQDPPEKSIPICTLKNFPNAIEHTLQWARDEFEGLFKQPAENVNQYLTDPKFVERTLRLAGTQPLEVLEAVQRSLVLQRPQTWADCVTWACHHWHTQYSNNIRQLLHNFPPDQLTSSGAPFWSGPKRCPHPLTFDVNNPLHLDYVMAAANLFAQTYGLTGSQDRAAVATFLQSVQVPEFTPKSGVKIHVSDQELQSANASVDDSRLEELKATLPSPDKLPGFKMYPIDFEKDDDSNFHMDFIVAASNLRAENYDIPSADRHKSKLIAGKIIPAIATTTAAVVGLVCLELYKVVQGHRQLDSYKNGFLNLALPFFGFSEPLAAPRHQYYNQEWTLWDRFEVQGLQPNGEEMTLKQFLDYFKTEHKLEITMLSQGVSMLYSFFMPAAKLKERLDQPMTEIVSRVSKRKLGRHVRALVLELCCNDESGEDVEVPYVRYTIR", "test": "UBA1~Ub thioester adduct formation (thioester transfer assay gel resolving UBA1 from UBA1~Ub)", "type": "biochemical", "settings": "all concentrations of peptide"}, "UBA1 [2]": {"target": "T1, UBA1", "test": "Fluorescence polarization binding assay", "settings": "presence and absence of ubiquitin and ATP", "from_the_text": "(§1) In vitro Binding Assays: To assess the binding and affinity of peptidomimetic macrocycles and peptidomimetic precursors to acceptor proteins, a fluorescence polarization assay (FPA) can be used, for example. The FPA technique measures the molecular orientation and mobility using polarized light and fluorescent tracer. When excited with polarized light, fluorescent tracers (e.g., FITC) attached to molecules with high apparent molecular weights (e.g., FITC-labeled peptides bound to a large protein) emit higher levels of polarized fluorescence due to their slower rates of rotation as compared to fluorescent tracers attached to smaller molecules (e.g., FITC-labeled peptides that are free in solution).\nas §1, with “ligands” for “peptidomimetic macrocycles and peptidomimetic precursors”"}, "UBA1 [3]": {"target": "T1, UBA1", "test": "Hydrogen-deuterium exchange mass spectrometry with E1", "type": "binding", "settings": "10 s labeling", "procedure": "HXMS analysis: Hydrogen-deuterium exchange mass spectrometry (HXMS) experiments were performed as described (Barclay, L. A. et al. Inhibition of Pro-apoptotic BAX by a noncanonical interaction mechanism. Molecular Cell 57, 873-886, doi: 10.1016/j.molcel.2015.01.014 (2015)). SAH-UBE2A was incubated alone or with the indicated molar ratio of recombinant human UBA1, UBE2D2, or vehicle control for ten minutes on ice, in buffer containing 50 mM NaCl, 5 mM MgCl2, 500 nM ubiquitin, 20 mM ATP, 5 mM DTT, 20 mM HEPES, pH 7.4. Deuterium labeling was initiated with an 18-fold dilution into D20 buffer (20 mM HEPES, 50 mM NaCl, pD 8). After 10 s of labeling, the labeling reaction was quenched with the addition of an equal volume of quenching buffer (0.8 M guanidinium chloride, 0.8% [v/v] formic acid). Samples were then injected and peptides were trapped intact and desalted on a VanGuard Pre-Column trap (2.1 mm×5 mm, ACQUITY UPLC BEH C18, 1.7 μm) for 3 min, eluted from the trap using a 5%-35% gradient of acetonitrile over 6 minutes at a flow rate of 65 μL/min, and then separated using an ACQUITY UPLC HSS T3, 1.8 μm, 1.0 mm×50 mm column on a Waters nanoACQUITY LC. The Waters Synapt G2Si mass spectrometer was operated in ion mobility mode and data analyzed. All mass spectra were processed using DynamX 3.0 (Waters Corporation). […]"}, "[4]": {"tested_on": "ubiquitin cascade E1 (UBA1), E2 (UBE2A), E3 (HDM2), substrate p53", "test": "In vitro ubiquitin pathway reconstitution assay (p53 ubiquitination)", "type": "biochemical", "settings": "peptide 30 μM; for ubiquitination of p53 with E2 pre-activated with Ub: pre-activated E2 instead of uncharged E2 and Ub; for ubiquitination of p53 with E1, E2, E3, Ub and ATP: unactivated E2", "procedure": "In Vitro Ubiquitin Pathway Reconstitution Assay: Reactions containing recombinant His-p53 (0.1 μM), in the presence or absence of peptide (30 μM), UBA1 (0.1 μM), UBE2D (1 μM), HDM2 (1 μM), ubiquitin (1 μM) and ATP (10 mM) (all Boston Biochem K-200B), preactivated Ub-UBEA2 (3 μM) (Boston Biochem E2-802), and USP7 (1 μM) (BostonBiochem E-519), as indicated, were mixed and incubated for 2 h at 37° C. in a final volume of […] followed by denaturation by boiling in SDS-containing loading dye for 10 min at 90° C. Samples were resolved by […] gel electrophoresis and transferred to nitrocellulose membrane. Membranes were blocked with 3% milk for 1 h, incubated overnight in PBS containing 3% BSA and mouse p53 antibody (Boston Biochem K-200B) at a 1:1000 dilution, washed in PBS containing 0.1% Tween-20, and then incubated in PBS containing 3% BSA and anti-mouse secondary antibody (BioRad AAC10P) at a 1:5000 dilution for 1 hour at room temperature. Membranes were again washed in PBS containing 0.1% Tween-20 and imaged using Amersham ECL Prime (GE Life Sciences) on an Amersham Imager 680 (GE Life Sciences)."}}, "note": "“Also recorded” adds a separate entry of the source. Bridge positions count the residues as written; N and C are the ends. Square brackets hold non-standard residues; d marks the D form. Peptide text beside a SMILES is read from it. R8 = C=CCCCCCC[C@@](C)(N)C(=O)O; S5 = C=CCCC[C@](C)(N)C(=O)O; Nle = CCCC[C@H](N)C(=O)O", "data": [{"smiles": "CCCC[C@H](NC(C)=O)C(=O)N[C@@H](CO)C(=O)N[C@H](C(=O)N1CCC[C@H]1C(=O)N[C@]1(C)CCCCCCC=CCCC[C@@](C)(C(=O)N[C@@H](Cc2ccccc2)C(=O)N[C@@H](CCCCN)C(=O)N[C@@H](CCCNC(=N)N)C(=O)N[C@@H](CC(C)C)C(=O)N[C@@H](CCC(N)=O)C(N)=O)NC(=O)[C@H](CCCNC(=N)N)NC(=O)[C@H](CCCC)NC(=O)[C@H](CC(C)C)NC(=O)[C@H](CCCNC(=N)N)NC(=O)[C@H](CCCNC(=N)N)NC(=O)[C@H](CCCNC(=N)N)NC1=O)[C@@H](C)O", "note": "[SAH-UBE2A-11, BSTPX1RRRLBRX2FKRLQ] (Ac-[Nle]STP[R8]RRRL[Nle]R[S5]FKRLQ-NH2; staple 5-12)", "values": [{"measurement": "ability of UBA1 to form covalent UBA1~Ub thioester adduct", "setting": "UBA1 [1]", "value": "no effect on the ability of UBA1 to covalently charge itself with ubiquitin"}, {"measurement": "ability of UBA1 to form covalent UBA1~Ub thioester adduct", "setting": "UBA1 [1]; listed as SAH-UBE2A", "value": "no effect on the ability of UBA1 to form a covalent UBA1˜Ub thioester adduct"}, {"measurement": "direct binding to recombinant UBA1, fluorescence polarization", "setting": "UBA1 [2]", "value": "binds to UBA1 independent of ubiquitin and ATP; also recorded: direct binding of SAH-UBE2A to recombinant UBA1"}, {"measurement": "protection of peptide from deuterium uptake by UBA1", "setting": "UBA1 [3]", "value": "dose-dependently protected SAH-UBE2A from deuterium uptake; also recorded: dose-responsively binding to E1"}, {"measurement": "ubiquitination of p53 with E2 pre-activated with Ub", "setting": "[4]", "value": "no effect on the ubiquitination of p53"}, {"measurement": "ubiquitination of p53 with E2 pre-activated with Ub", "setting": "[4]; listed as SAH-UBE2A", "value": "circumvents the inhibitory activity of SAH-UBE2A"}, {"measurement": "ubiquitination of p53 with E1, E2, E3, Ub and ATP", "setting": "[4]", "value": "inhibited the ubiquitination of p53 protein"}, {"measurement": "ubiquitination of p53 with E1, E2, E3, Ub and ATP", "setting": "[4]; listed as SAH-UBE2A", "value": "inhibits the ubiquitination of p53"}]}]}
